{
  "source": "ChEMBL document CHEMBL5126528",
  "about": "“Recent strategies targeting Embryonic Ectoderm Development (EED) for cancer therapy: Allosteric inhibitors, PPI inhibitors, and PROTACs” (Eur J Med Chem, 2022)",
  "key": {"Polycomb protein EED [1]": {"biological_target": "T1, Polycomb protein EED (Homo sapiens, UniProt O75530)", "experiment": "Inhibition of human EED (76 to 441 residues) expressed in Escherichia coli strain BL21(DE3) by alpha screen assay"}, "Polycomb protein EED [2]": {"biological_target": "T1, Polycomb protein EED", "experiment": "Binding affinity to EED (unknown origin) assessed as dissociation constant"}, "Polycomb protein EED [3]": {"biological_target": "T1, Polycomb protein EED", "experiment": "Inhibition of EED (unknown origin)"}, "[4]": {"experiment": "Solubility of the compound at pH 7.4", "format": "physicochemical", "details": "buffer"}, "Polycomb protein EED [5]": {"biological_target": "T1, Polycomb protein EED", "experiment": "Binding affinity to EED (unknown origin) assessed as dissociation constant by SPR analysis"}, "[6]": {"experiment": "Inhibition of PRC2 (unknown origin)", "set-up": "species or system Homo sapiens"}, "Polycomb protein EED [7]": {"biological_target": "T1, Polycomb protein EED", "experiment": "Binding affinity to human N-terminal His-6 tagged EED expressed in Escherichia coli strain […] by SPR analysis"}, "Polycomb protein EED [8]": {"biological_target": "T1, Polycomb protein EED", "experiment": "Inhibition of human N-terminal His-6 tagged EED expressed in Escherichia coli strain […] by SPR analysis"}, "KARPAS-422 [9]": {"tested_on": "KARPAS-422", "experiment": "Antiproliferative activity against human KARPAS-422 cells assessed as cell growth inhibition measured after 7 to 10 days by celltitre-glo-luminescent assay", "format": "functional", "details": "time 7-10 day"}, "Polycomb protein EED [10]": {"biological_target": "T1, Polycomb protein EED", "experiment": "Binding affinity to full length EED (unknown origin) assessed as increase in melting temperature at 50 uM incubated for 30 mins by TSA", "details": "tested as the 2H-labelled form"}, "Polycomb protein EED [11]": {"biological_target": "T1, Polycomb protein EED", "experiment": "Binding affinity to full length EED (unknown origin) assessed as increase in melting temperature at 100 uM incubated for 30 mins by TSA", "details": "tested as the 2H-labelled form"}, "Pfeiffer [12]": {"tested_on": "Pfeiffer", "experiment": "Antiproliferative activity against human Pfeiffer cells treated for 14 days", "format": "functional, cell-based", "details": "336 h"}, "KARPAS-422 [13]": {"tested_on": "KARPAS-422", "experiment": "Antiproliferative activity against human KARPAS-422 cells treated for 11 days", "format": "functional, cell-based", "details": "KARPAS-422, 264 h"}, "Homo sapiens": {"species": "Homo sapiens", "experiment": "Inhibition of GST-tagged EZH2/FLAG-tagged EED (unknown origin) protein protein interaction at 100 uM incubated for 1 hr by AlphaLISA method relative to control"}, "Pfeiffer [14]": {"tested_on": "Pfeiffer", "experiment": "Antitumor activity against human Pfeiffer cells assessed as tumor growth inhibition at 100 mg/kg, po, bid for 38 days relative to control", "format": "functional", "details": "912 h, time 38 day, read-out: TGI"}, "Pfeiffer [15]": {"tested_on": "Pfeiffer", "experiment": "Antitumor activity against human Pfeiffer cells xenografted in NOD/SCID mouse assessed as tumor growth inhibition at 100 mg/kg, bid, po for 36 days relative to control", "format": "functional", "details": "864 h, time 36 day, read-out: TGI"}, "KARPAS-422 [16]": {"tested_on": "KARPAS-422", "experiment": "Antitumor activity against human KARPAS-422 cells assessed as tumor growth inhibition at 100 mg/kg, po, bid for 38 days relative to control", "format": "functional", "details": "KARPAS-422, 912 h, time 38 day, read-out: TGI"}, "[17]": {"experiment": "Antitumor activity against […] cells xenografted in mouse assessed as tumor growth inhibition at 30 mg/kg relative to control", "format": "functional", "details": "read-out: TGI"}, "Polycomb protein EED [18]": {"biological_target": "T1, Polycomb protein EED", "experiment": "Inhibition of His-tagged EED (unknown origin) incubated for 30 mins in presence of biotinylated H3K27me3 peptide (19 to 33 aa) by alpha screening competitive binding assay method"}, "KARPAS-422 [19]": {"tested_on": "KARPAS-422", "experiment": "Antitumor activity against human KARPAS-422 cells xenografted in NOD/SCID mouse assessed as tumor growth inhibition at 40 mg/kg, bid, po for 36 days relative to control", "format": "functional", "details": "KARPAS-422, 864 h, time 36 day, read-out: TGI"}, "KARPAS-422 [20]": {"tested_on": "KARPAS-422", "experiment": "Antitumor activity against human KARPAS-422 cells xenografted in NOD/SCID mouse assessed as tumor growth inhibition at 100 mg/kg, bid, po for 36 days relative to control", "format": "functional", "details": "KARPAS-422, 864 h, time 36 day, read-out: TGI"}, "Pfeiffer [21]": {"tested_on": "Pfeiffer", "experiment": "Antitumor activity against human Pfeiffer cells xenografted in NOD/SCID mouse assessed as tumor growth inhibition at 40 mg/kg, bid, po for 36 days relative to control", "format": "functional", "details": "864 h, time 36 day, read-out: TGI"}, "[22]": {"experiment": "Inhibition of FITC-labeled EZH2 (39 to 63 residues) (unknown origin)/N-terminal 6x His-tagged human EED protein interaction by incubated for 2 hrs FP-based competitive assay"}, "[23]": {"experiment": "Binding affinity to EZH2-EED (unknown origin) protein interaction assessed as inhibition constant by FP binding assay", "set-up": "species or system Homo sapiens"}, "[24]": {"experiment": "Inhibition of EZH2-EED (unknown origin) protein interaction by FP binding assay", "set-up": "species or system Homo sapiens"}, "[25]": {"experiment": "Inhibition of GST-tagged EZH2/FLAG-tagged EED (unknown origin) protein protein interaction incubated for 1 hr by AlphaLISA method", "set-up": "species or system Homo sapiens"}, "Polycomb protein EED [26]": {"biological_target": "T1, Polycomb protein EED", "details": "dose 500.0 µM", "description": "Binding affinity to GST-tagged EED (unknown origin) assessed as thermal stability by measuring melting temperature at 500 uM by TSA method"}},
  "note": "pIC50, pKd, pKi: −log10 of the molar value. Where a name gives a salt, the structure may show the parent alone.",
  "data": [
    {"smiles": "Cc1nc(NCc2c(F)ccc3c2CCO3)sc1-c1ccnn1C", "values": [
      {"measurement": "pIC50", "setting": "Polycomb protein EED [1]", "result": 5.68},
      {"measurement": "pKd", "setting": "Polycomb protein EED [2]", "result": 6.05}
    ]},
    {"smiles": "CN1CC=C(c2cnc(NCC3Cc4cc(F)ccc4O3)c3nncn23)CC1", "note": "(stereo unspecified)", "values": [
      {"measurement": "pIC50", "setting": "Polycomb protein EED [3]", "result": "> 7.00"}
    ]},
    {"smiles": "Cc1ncccc1-c1cnc(NCc2c(F)cc(F)c3c2CCO3)n2cnnc12", "values": [
      {"measurement": "solubility", "setting": "[4]", "result": 4, "unit": "µM"},
      {"measurement": "pKd", "setting": "Polycomb protein EED [5]", "result": 8.92},
      {"measurement": "pIC50", "setting": "[6]", "result": 7.96}
    ]},
    {"smiles": "Cc1ncsc1-c1ccc(CNC(=O)[C@@H]2C[C@@H](O)CN2C(=O)[C@@H](NC(=O)COc2ccc(OCCNC(=O)CCc3ccc(-c4cnc(NCc5c(F)ccc6c5CCO6)n5cnnc45)c(N)n3)cc2)C(C)(C)C)cc1", "values": [
      {"measurement": "pKd", "setting": "Polycomb protein EED [7]", "result": 9.20},
      {"measurement": "pIC50", "setting": "Polycomb protein EED [8]", "result": 8.17},
      {"measurement": "GI50", "setting": "KARPAS-422 [9]", "result": 45, "unit": "nM"}
    ]},
    {"smiles": "Cc1cc(-c2cnc(NCC3Cc4cc(F)ccc4O3)n3cc(C#N)nc23)n(C)n1", "note": "(stereo unspecified)", "values": [
      {"measurement": "pIC50", "setting": "Polycomb protein EED [3]", "result": "> 7.00"}
    ]},
    {"smiles": "Cc1ncccc1-c1cnc(NCc2c(F)ccc3c2CCO3)n(C)c1=O", "values": [
      {"measurement": "ΔTm", "setting": "Polycomb protein EED [10]", "result": 6, "unit": "°C"},
      {"measurement": "ΔTm", "setting": "Polycomb protein EED [11]", "result": 10, "unit": "°C"}
    ]},
    {"smiles": "Cc1nc(CCC(=O)NCCCCC(=O)N[C@H](C(=O)N2C[C@H](O)C[C@H]2C(=O)NCc2ccc(-c3scnc3C)cc2)C(C)(C)C)ccc1-c1cnc(NCc2c(F)ccc3c2CCO3)n2cnnc12", "values": [
      {"measurement": "pKd", "setting": "Polycomb protein EED [7]", "result": 9.27},
      {"measurement": "pIC50", "setting": "Polycomb protein EED [8]", "result": 8.11},
      {"measurement": "GI50", "setting": "KARPAS-422 [9]", "result": 57, "unit": "nM"}
    ]},
    {"smiles": "CS(=O)(=O)N1CC=C(c2cnc(NCC3Cc4cc(F)ccc4O3)n3cnnc23)CC1", "note": "(stereo unspecified)", "values": [
      {"measurement": "pIC50", "setting": "Pfeiffer [12]", "result": 9.00},
      {"measurement": "pIC50", "setting": "Polycomb protein EED [3]", "result": "> 7.70"},
      {"measurement": "pIC50", "setting": "KARPAS-422 [13]", "result": 7.89}
    ]},
    {"smiles": "O=C1Nc2ccc(S(=O)(=O)NCCCCCCNS(=O)(=O)c3ccc4c5c(cccc35)C(=O)N4)c3cccc1c23", "values": [
      {"measurement": "inhibition", "setting": "Homo sapiens", "result": 84, "unit": "%"}
    ]},
    {"smiles": "[2H]C([2H])(Nc1ncc(-c2cccnc2C)c(=O)n1C)c1c(F)ccc2c1CCO2", "values": [
      {"measurement": "inhibition in vivo at 100 mg/kg", "setting": "Pfeiffer [14]", "result": 96, "unit": "%"},
      {"measurement": "inhibition in vivo at 100 mg/kg", "setting": "Pfeiffer [15]", "result": 96, "unit": "%"},
      {"measurement": "pIC50", "setting": "Polycomb protein EED [3]", "result": 8.35},
      {"measurement": "inhibition in vivo at 100 mg/kg", "setting": "KARPAS-422 [16]", "result": 85, "unit": "%"},
      {"measurement": "inhibition in vivo at 30 mg/kg", "setting": "[17]", "result": 59.3, "unit": "%"},
      {"measurement": "pIC50", "setting": "Polycomb protein EED [18]", "result": 8.35},
      {"measurement": "inhibition in vivo at 40 mg/kg", "setting": "KARPAS-422 [19]", "result": 75, "unit": "%"},
      {"measurement": "inhibition in vivo at 100 mg/kg", "setting": "KARPAS-422 [20]", "result": 85, "unit": "%"},
      {"measurement": "inhibition in vivo at 40 mg/kg", "setting": "Pfeiffer [21]", "result": 83, "unit": "%"}
    ]},
    {"smiles": "Cc1sc(NC(=O)CCCCC(=O)Nc2sc(C)c(C)c2C(N)=O)c(C(N)=O)c1C", "values": [
      {"measurement": "pIC50", "setting": "[22]", "result": 4.26}
    ]},
    {"smiles": "COC(=O)C1=C(C)NC(C)=C(C(=O)OC)C1c1ccccc1[N+](=O)[O-]", "note": "[NIFEDIPINE]", "values": [
      {"measurement": "pKi", "setting": "[23]", "result": 4.18},
      {"measurement": "pIC50", "setting": "[24]", "result": 3.47}
    ]},
    {"smiles": "C[C@@H](CO)NC(=O)[C@@H]1C=C2c3cccc4[nH]cc(c34)C[C@H]2N(C)C1", "note": "[ERGONOVINE MALEATE]", "values": [
      {"measurement": "pKi", "setting": "[23]", "result": 4.15},
      {"measurement": "pIC50", "setting": "[24]", "result": 3.44}
    ]},
    {"smiles": "CN1CC=C(c2cnc(NCC3Cc4cc(F)ccc4O3)c3cncnc23)CC1", "note": "(stereo unspecified)", "values": [
      {"measurement": "pIC50", "setting": "Polycomb protein EED [3]", "result": "> 7.00"}
    ]},
    {"smiles": "CCCCc1ccc(Nc2nnc(SCc3occc3C(=O)O)s2)cc1", "values": [
      {"measurement": "pIC50", "setting": "[25]", "result": 4.49}
    ]},
    {"smiles": "CCOc1ccc(C(=O)CSc2nnc(-c3ccc(O)cc3)c(-c3ccc(O)cc3)n2)cc1NC(=O)CC", "values": [
      {"measurement": "pIC50", "setting": "[25]", "result": 4.19}
    ]},
    {"smiles": "CN(C)[C@@H]1CN(C2CCc3cccc(F)c32)C[C@H]1c1ccc(N2CCN(S(C)(=O)=O)CC2)cc1", "note": "(stereo partly specified)", "values": [
      {"measurement": "ΔTm", "setting": "Polycomb protein EED [26]", "result": 18, "unit": "°C"}
    ]},
    {"smiles": "Cc1ncccc1-c1cnc(NCC2Cc3cc(F)ccc3O2)c2nncn12", "note": "(stereo unspecified)", "values": [
      {"measurement": "pIC50", "setting": "Polycomb protein EED [3]", "result": "> 7.00"}
    ]},
    {"smiles": "Cc1ncccc1-c1cnc(NCc2c(F)ccc3c2CCO3)n2cnnc12", "values": [
      {"measurement": "pKd", "setting": "Polycomb protein EED [5]", "result": 9.40},
      {"measurement": "pIC50", "setting": "[6]", "result": 8.30}
    ]},
    {"smiles": "Cc1ncccc1-c1cc2c(n3cnnc13)NCc1c(F)ccc3c1[C@H](CO3)CO2", "note": "[POCIREDIR]", "values": [
      {"measurement": "pKd", "setting": "Polycomb protein EED [2]", "result": 6.79}
    ]}
  ]
}
